From patent publication US12502369B2, “Methods of cancer treatment” (K-GEN, INC., priority 2015, dated 2025)
Entries after “also recorded” stand apart in the source; their conditions may differ.

What was measured:
Namalwa cells = test: Proliferation assay, PKC inhibitors in combination with PKC activators, Namalwa; format: cell-based; conditions: Sotrastaurin 0.3/1 μM, Go6983 0.1/1 μM, Go6976 0.3/1 μM, Enzastaurin at very high concentration of 10 μM
Experimental: PKC inhibitor studies were performed as described in Example 15. […] Thus, PKC activator-mediated anti-proliferation effects may be dependent on activation of novel PKC isoforms.

Mino cells = test: Proliferation assay, PKC inhibitors in combination with PKC activators, Mino; format: cell-based; conditions: Sotrastaurin 0.3/1 μM, Go6983 0.1/1 μM, Go6976 0.3/1 μM, Enzastaurin 1/3 μM
Experimental: PKC inhibitor studies were performed as described in Example 8, 9, and 10. […] Thus, PKC activator-mediated anti-proliferation effects may be dependent on activation of PKC isoforms from the novel PKC class.

[1] = system: PKC isoforms and Erk1/2 in Mino and Namalwa cells; test: PKC inhibitor effect on K101A-mediated phosphorylation of PKCs and Erk1/2 in Mino and Namalwa cells; format: cell-based; conditions: for phosphorylation of PKCδ at Tyr311 induced by PKC inhibitor: inhibitor pre-treatment 30 minutes; for K101A-induced phosphorylation of PKCμ at Ser916 or Ser744/748, PKCδ at Thr505, and Erk: inhibitor pre-treatment 30 minutes (Go6983, Sotrastaurin 1 μM)
Experimental: Cell lysis, protein quantitation, and Western blot analysis were performed as described above in Example 2 and 4. […] Again, these PKC inhibitor studies indicate the anti-proliferative effects of the PKC activators appear to be positively associated with phosphorylation and activation of novel PKC isoforms and PKCγ, and negatively associated with the phosphorylation of PKCδ at Tyr311.

A549 = test: Proliferation assay, PKC inhibitor in combination with PKC activators, A549; format: cell-based; conditions: for effect on PKC activator-mediated proliferation inhibition: K101A with Go6976 (0.1 or 0.3 μM), GF109203X (0.3 or 1 μM), Enzastaurin (0.3 or 1 μM); for inhibition of K101A anti-proliferative effects: higher concentrations of inhibitor
Experimental: To assess if activation of different classes of PKC is required for anti-proliferation effect of PKC activators, Sotrastaurin, a PKC inhibitor targeting both conventional and novel classes of PKC, was tested in combination with PKC activators in the proliferation assays. Proliferation assay in lung cancer cell line A549 (FIG. 15) and in pancreatic cell line MiaPaCa-2 (FIG. 16) was performed as described in Example 1. […] Then, K101A or K102 was tested in 8- or 9-point titrations in the presence of DMSO or Sotrastaurin (0.1 μM or 1 μM). […] Thus, PKC activator-mediated anti-proliferation effects are dependent on activation of PKC isoforms from conventional, or novel, or both classes of PKCs.
To assess if PKC activation is required for anti-proliferation effect of PKC activators in cancer cell lines that are sensitive to these activators, a pan-PKC inhibitor Go6983, targeting classes of PKCs (conventional, novel, atypical, and PKCμ), was tested in combination with PKC activators in the proliferation assays. Proliferation assay in lung cancer cell line A549 (FIG. 17) and in pancreatic cell line MiaPaCa-2 (FIG. 18) was performed as described in Example 1. […] Then, K101A or K102 was tested in 8- or 9-point titrations in the presence of DMSO or Go6983 (0.1 μM or 1 μM). […] Thus, PKC activation is required for anti-proliferation effect of PKC activators.
Proliferation assay was performed as described in Example 1. […] Thus, PKC activator-mediated anti-proliferation effects appear mainly dependent on activation of novel PKC isoforms.

PKCε = PKCε (Homo sapiens, UniProt Q02156); conditions: cited from earlier work
Chain of PKCε (Q02156 whole entry, canonical isoform): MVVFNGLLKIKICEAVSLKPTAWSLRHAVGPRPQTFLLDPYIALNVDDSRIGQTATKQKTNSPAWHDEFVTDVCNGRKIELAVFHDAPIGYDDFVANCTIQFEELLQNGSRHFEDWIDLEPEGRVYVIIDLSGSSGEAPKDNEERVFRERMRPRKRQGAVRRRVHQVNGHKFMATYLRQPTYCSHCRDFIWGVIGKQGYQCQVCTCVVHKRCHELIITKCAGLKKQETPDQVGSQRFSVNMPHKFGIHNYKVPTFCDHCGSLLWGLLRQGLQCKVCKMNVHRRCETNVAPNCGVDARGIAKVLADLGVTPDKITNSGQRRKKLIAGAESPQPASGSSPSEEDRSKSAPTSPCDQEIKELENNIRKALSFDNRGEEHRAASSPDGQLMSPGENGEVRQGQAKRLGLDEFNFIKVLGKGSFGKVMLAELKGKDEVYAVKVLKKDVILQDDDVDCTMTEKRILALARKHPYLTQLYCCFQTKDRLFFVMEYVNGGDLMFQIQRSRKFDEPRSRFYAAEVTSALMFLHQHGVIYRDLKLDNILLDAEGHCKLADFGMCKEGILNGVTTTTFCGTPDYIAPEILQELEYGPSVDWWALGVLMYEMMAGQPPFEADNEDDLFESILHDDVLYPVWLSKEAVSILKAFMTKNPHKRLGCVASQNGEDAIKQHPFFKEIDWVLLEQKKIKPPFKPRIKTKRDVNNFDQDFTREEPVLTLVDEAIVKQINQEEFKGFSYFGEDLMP

[2] = system: PKC isoforms and Erk1/2 in A549 cells; test: PKC inhibitor effect on PKC activator-mediated phosphorylation of PKCs and Erk1/2, A549; format: cell-based; conditions: 30 minutes; for K101A- or K102-induced phosphorylation of PKCμ at Ser916 or Ser744/748, PKCδ at Thr505, and Erk / phosphorylation of PKCδ at Tyr311 induced by PKC inhibitor: inhibitor pre-treatment 1 μM
Experimental: To assay if PKC inhibitors have any effects on the PKC activator-mediated phosphorylation of PKCs, A549 cells were pre-treated with DMSO, PKC inhibitors Go6983 (0.3 μM or 1 μM) or Sotrastaurin (0.3 μM or 1 μM) for 30 minutes before adding PKC activators K101A (1 μM) or K102 (0.1 μM) for another 30 minutes (FIG. 22). Cell lysis, protein quantitation, and Western blot analysis were performed as described above in Example 2 and 4. […] Phosphorylation of PKCα/β at Thr638/641 was not affected by the inhibitors (FIG. 22A). […] These PKC inhibitor studies indicate that blocking phosphorylation and activation of various isoforms of PKC is correlated with inhibition of the anti-proliferative effects of the PKC activators.
Cell lysis, protein quantitation, and Western blot analysis were performed as described above in Example 2 and 4. […] These PKC inhibitor studies also indicate that phosphorylation and activation of novel PKC isoforms and PKCμ is required for the anti-proliferative effects of the PKC activators whereas phosphorylation of PKCδ at Tyr311 is correlated with inhibition of the anti-proliferative effects of PKC activators.

PKCα, β, & γ = conditions: cited from earlier work
PKCα & β = conditions: cited from earlier work
MiaPaCa-2 = test: Proliferation assay, PKC inhibitor in combination with PKC activators, MiaPaCa-2; format: cell-based; conditions: Sotrastaurin 1 μM with K101A or K102
[3] = inhibitor pre-treatment 0.3 μM or 1 μM

SMILES | effect on PKC activator-mediated anti-proliferation effects (Namalwa cells) | effect on PKC activator-mediated anti-proliferation effects (Mino cells) | phosphorylation of PKCδ at Tyr311 induced by PKC inhibitor [1] | effect on PKC activator-mediated proliferation inhibition (A549) | inhibition of K101A anti-proliferative effects (A549) | Ki (PKCε) | K101A- or K102-induced phosphorylation of PKCμ at Ser916 or Ser744/748, PKCδ at Thr505, and Erk [2] | phosphorylation of PKCδ at Tyr311 induced by PKC inhibitor [2] | Ki (PKCα, β, & γ) | K101A-induced phosphorylation of PKCμ at Ser916 or Ser744/748, PKCδ at Thr505, and Erk [1] | Ki (PKCα & β) | effect on PKC activator-mediated anti-proliferation effects (MiaPaCa-2) | effect on PKC activator-mediated anti-proliferation effects (A549; Sotrastaurin 1 μM with K101A or K102) | K101A- and K102-induced phosphorylation of Erk1/2 [2, 3] | K101A- or K102-induced phosphorylation, P-PKCμ (Ser916), P-PKCμ (Ser744/748), P-PKCδ (Thr505) [2, 3] | Phosphorylation of PKCα/β at Thr638/641 [2, 3]
Cn1cc(C2=C(c3cn(C4CCN(Cc5ccccn5)CC4)c4ccccc34)C(=O)NC2=O)c2ccccc21 [Enzastaurin] | marginally blocked | partially blocked | induced moderate phosphorylation | minimal effects; also recorded: weak inhibition | Slight inhibition | 110 nM | minimal effects | induced phosphorylation of PKCδ at Tyr311 partially |  |  |  |  |  |  |  | 
CN(C)CCCn1cc(C2=C(c3c[nH]c4ccccc34)C(=O)NC2=O)c2ccccc21 [GF109203X] |  |  |  | minimal effects; also recorded: weak inhibition | Slight inhibition |  | minimal effects | induced phosphorylation of PKCδ at Tyr311 partially | ~20 nM |  |  |  |  |  |  | 
Cn1c2ccccc2c2c3c(c4c5ccccc5n(CCC#N)c4c21)CNC3=O [Go6976] | did not block | did not block | did not induce phosphorylation | minimal effects; also recorded: no inhibition |  |  | minimal effects | induced no phosphorylation of PKCδ at Tyr311 |  | little effect | 2.3 to 6.2 nM |  |  |  |  | 
CN1CCN(c2nc(C3=C(c4c[nH]c5ccccc45)C(=O)NC3=O)c3ccccc3n2)CC1 [Sotrastaurin] | dose-dependently blocked | dose-dependently blocked | induced robust phosphorylation |  |  |  | completely abolished | induced phosphorylation of PKCδ at Tyr311 |  | completely abolished |  | completely abolished | completely abolished | blocked dose-dependently | blocked in a dose-dependent manner | not affected
